Where “and” joins values, the source holds several entries; their conditions need not be identical. Equal values may be shown once. Toxic doses and inconclusive results are not listed. Rule as the data show it: active = T/C of 150% or more; inactive = T/C below 125%.
Tested on: L1210 leukemia ip in BDF1 mice, survival T/C
Assay: NCI In Vivo Anticancer Drug Screen. Data for tumor model L1210 Leukemia (intraperitoneal) in B6D2F1 (BDF1) mice
Conditions: endpoint: mean survival time, higher = longer survival
Outline: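 Ratio derived from survival: compound-dosed mice over vehicle-dosed mice, all bearing a transplantable tumor.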

[1] = dose: 100.0 mg/kg/injection, schedule: Q04DX002 (ip), vehicle: saline
[2] = dose: 200.0 mg/kg/injection, schedule: Q04DX002 (ip), vehicle: saline
[3] = dose: 400.0 mg/kg/injection, schedule: Q04DX002 (ip), vehicle: saline
[4] = dose: 100.0 mg/kg/injection, schedule: Q01DX001 (ip), vehicle: carboxymethylcellulose (CMC)
[5] = dose: 200.0 mg/kg/injection, schedule: Q01DX001 (ip), vehicle: carboxymethylcellulose (CMC)
[6] = dose: 100.0 mg/kg/injection, schedule: Q04DX003 (ip), vehicle: gum acacia

Measured: T/C

CCOC(=O)C1(O)c2ccccc2NC(=S)N1CC(Br)CBr (stereo unspecified)
inactive: dose: 100.0 mg/kg/injection, schedule: Q01DX009 (ip), vehicle: saline 100 % of control | [1] 90 % of control | dose: 200.0 mg/kg/injection, schedule: Q01DX009 (ip), vehicle: saline 93 % of control | [2] 97 % of control | dose: 400.0 mg/kg/injection, schedule: Q01DX009 (ip), vehicle: saline 102 % of control | [3] 103 % of control

Oc1ccc(O)c(-c2ccccc2)c1
inactive: [4] 93 % of control | [5] 101 % of control

[O]=[Cr](=[O])([OH])[O][Cr](=[O])(=[O])[OH]
inactive: dose: 6.25 mg/kg/injection, schedule: Q01DX009 (ip), vehicle: saline 104 % of control | dose: 12.5 mg/kg/injection, schedule: Q01DX009 (ip), vehicle: saline 97 % of control | dose: 25.0 mg/kg/injection, schedule: Q04DX003 (ip), vehicle: saline 108 % of control

COc1ccc(C(=O)c2ccc(Cl)s2)cc1
inactive: [6] 96 % of control | dose: 200.0 mg/kg/injection, schedule: Q04DX003 (ip), vehicle: gum acacia 91 % of control | dose: 400.0 mg/kg/injection, schedule: Q04DX003 (ip), vehicle: gum acacia 89 % of control

Cc1ccc2ccccc2[n+]1[O-]
inactive: dose: 25.0 mg/kg/injection, schedule: Q01DX009 (ip), vehicle: saline with Tween-80 100 % of control | dose: 25.0 mg/kg/injection, schedule: Q04DX002 (ip), vehicle: saline with Tween-80 93 % of control | dose: 50.0 mg/kg/injection, schedule: Q01DX009 (ip), vehicle: saline with Tween-80 96 % of control | dose: 50.0 mg/kg/injection, schedule: Q04DX002 (ip), vehicle: saline with Tween-80 104 % of control | dose: 75.0 mg/kg/injection, schedule: Q01DX001 (ip), vehicle: carboxymethylcellulose (CMC) 94 % of control | dose: 100.0 mg/kg/injection, schedule: Q01DX009 (ip), vehicle: saline with Tween-80 96 % of control | dose: 100.0 mg/kg/injection, schedule: Q04DX002 (ip), vehicle: saline with Tween-80 96 % of control | dose: 150.0 mg/kg/injection, schedule: Q01DX001 (ip), vehicle: carboxymethylcellulose (CMC) 96 % of control

CC(=O)CCC(=O)O
inactive: dose: 1.56 mg/kg/injection, schedule: Q01DX Z (ip), vehicle: other 98 % of control | dose: 3.13 mg/kg/injection, schedule: Q01DX Z (ip), vehicle: other 96 % of control | dose: 6.25 mg/kg/injection, schedule: Q01DX Z (ip), vehicle: other 96 % of control | dose: 12.5 mg/kg/injection, schedule: Q01DX Z (ip), vehicle: other 95 % of control | dose: 25.0 mg/kg/injection, schedule: Q01DX Z (ip), vehicle: other 95 % of control | dose: 50.0 mg/kg/injection, schedule: Q01DX Z (ip), vehicle: other 98 % of control | dose: 100.0 mg/kg/injection, schedule: Q01DX Z (ip), vehicle: other 113 % of control | [1] 88 % of control | dose: 200.0 mg/kg/injection, schedule: Q01DX Z (ip), vehicle: other 96 % of control | [2] 100 % of control | [3] 118 % of control

CN(C)CCC(C(=O)c1ccccc1)c1ccccn1 (stereo unspecified)
inactive: dose: 55.0 mg/kg/injection, schedule: Q01DX Z (ip), vehicle: saline 100 % of control | dose: 83.0 mg/kg/injection, schedule: Q01DX Z (ip), vehicle: saline 107 % of control | dose: 125.0 mg/kg/injection, schedule: Q01DX Z (ip), vehicle: saline 96 % of control

CCCCCCCCCCCCc1cc2ccccc2c2ccccc12
inactive: dose: 100.0 mg/kg/injection, schedule: Q01DX001 (ip), vehicle: saline 98 % of control | dose: 200.0 mg/kg/injection, schedule: Q01DX001 (ip), vehicle: saline 95 % of control | dose: 400.0 mg/kg/injection, schedule: Q01DX001 (ip), vehicle: saline 89 % of control

Nc1nc2ncc(CNc3nc(C(=O)NC(CCC(=O)O)C(=O)O)cs3)nc2c(=O)[nH]1 (stereo unspecified)
inactive: dose: 25.0 mg/kg/injection, schedule: Q01DX009 (ip), vehicle: alkali diluted with saline 97 % of control | dose: 50.0 mg/kg/injection, schedule: Q01DX009 (ip), vehicle: alkali diluted with saline 93 % of control | dose: 75.0 mg/kg/injection, schedule: Q01DX001 (ip), vehicle: other 101 % of control | dose: 75.0 mg/kg/injection, schedule: Q01DX009 (ip), vehicle: alkali diluted with saline 103 % of control | dose: 100.0 mg/kg/injection, schedule: Q01DX009 (ip), vehicle: alkali diluted with saline 92 % of control | dose: 150.0 mg/kg/injection, schedule: Q01DX001 (ip), vehicle: other 103 % of control

CCOC(=O)c1cnc(N)nc1
inactive: dose: 100.0 mg/kg/injection, schedule: Q04DX003 (ip), vehicle: Klucel (hydroxypropylcellulose) (HPC) 97 % of control | dose: 200.0 mg/kg/injection, schedule: Q04DX003 (ip), vehicle: Klucel (hydroxypropylcellulose) (HPC) 101 % of control | dose: 400.0 mg/kg/injection, schedule: Q04DX003 (ip), vehicle: Klucel (hydroxypropylcellulose) (HPC) 98 % of control

S=c1c2ccccc2nc2n1CCS2
inactive: dose: 200.0 mg/kg/injection, schedule: Q01DX009 (ip), vehicle: saline with Tween-80 92 % of control | dose: 400.0 mg/kg/injection, schedule: Q01DX009 (ip), vehicle: saline with Tween-80 87 % of control

Oc1c(Br)cc(Br)cc1C=Nc1ccccc1.Oc1c(Br)cc(Br)cc1C=Nc1ccccc1.[Co]
inactive: dose: 100.0 mg/kg/injection, schedule: Q04DX003 (ip), vehicle: saline 92 % of control | dose: 200.0 mg/kg/injection, schedule: Q04DX003 (ip), vehicle: saline 98 % of control | dose: 400.0 mg/kg/injection, schedule: Q04DX003 (ip), vehicle: saline 98 % of control

O=C1c2ccccc2C(=O)c2c(NC(=O)C(Cl)CCl)cccc21 (stereo unspecified)
inactive: dose: 75.0 mg/kg/injection, schedule: Q01DX001 (ip), vehicle: saline 94 % of control | dose: 150.0 mg/kg/injection, schedule: Q01DX001 (ip), vehicle: saline 90 % of control and 92 % of control | dose: 300.0 mg/kg/injection, schedule: Q01DX001 (ip), vehicle: saline 97 % of control

COc1cc(/C=C2\CCNC2=O)ccc1OCc1ccccc1
inactive: dose: 50.0 mg/kg/injection, schedule: Q01DX001 (ip), vehicle: carboxymethylcellulose (CMC) 94 % of control | [4] 105 % of control | [5] 97 % of control | dose: 400.0 mg/kg/injection, schedule: Q01DX001 (ip), vehicle: carboxymethylcellulose (CMC) 103 % of control

O=C1C=C(c2ccccc2)C(=O)C=C1c1ccccc1
inactive: dose: 6.25 mg/kg/injection, schedule: Q01DX009 (ip), vehicle: water 94 % of control | dose: 12.5 mg/kg/injection, schedule: Q01DX009 (ip), vehicle: water 86 % of control | dose: 25.0 mg/kg/injection, schedule: Q01DX009 (ip), vehicle: water 103 % of control | dose: 25.0 mg/kg/injection, schedule: Q04DX003 (ip), vehicle: gum acacia 94 % of control | dose: 50.0 mg/kg/injection, schedule: Q01DX009 (ip), vehicle: water 86 % of control | dose: 50.0 mg/kg/injection, schedule: Q04DX003 (ip), vehicle: gum acacia 94 % of control | [6] 105 % of control

Cc1ccc(N2C=Nc3ccc(C)cc3C2)cc1
inactive: dose: 100.0 mg/kg/injection, schedule: Q01DX009 (ip), vehicle: Klucel (hydroxypropylcellulose) (HPC) 92 % of control | dose: 100.0 mg/kg/injection, schedule: Q04DX003 (ip), vehicle: other 107 % of control | dose: 200.0 mg/kg/injection, schedule: Q01DX009 (ip), vehicle: Klucel (hydroxypropylcellulose) (HPC) 104 % of control | dose: 200.0 mg/kg/injection, schedule: Q04DX003 (ip), vehicle: other 90 % of control
